Measured values published in patent US11001745B2, “Hydrocarbon recovery composition, method, and system” (THE SASKATCHEWAN RESEARCH COUNCIL, priority 2016, dated 2021).

Columns and labels:
[1] = room temperature; cited from earlier work
[2] = Dissolution of asphaltenes; type: physicochemical
Thermal stability = type: physicochemical; conditions: 200° C.

Asphaltenes dissolve in the compound [2]	Thermal stability (Thermal stability)	SMILES	Solubility in water [1]
dissolve	stable for at least one week	CCCCCCCCN1CCCC1=O [NOP, N-octyl-2-pyrrolidone]	about 1 g/L
dissolve		O=C1CCCN1C1CCCCC1 [NCHP, N-cyclohexyl-2-pyrrolidone]	
dissolve		CCCCCCCCCCCCN1CCCC1=O [NDDP, N-dodecyl-2-pyrrolidone]	
